Literature values in US20150216918A1, “FERMENTED SOY NUTRITIONAL SUPPLEMENTS INCLUDING MUSHROOM COMPONENTS” (priority 2010, published 2015).

System: tumor cells

In the case of CC(C)CCCCCCCCCCCC(=O)O [MDT-13, 13-methyl-tetradecanoic acid], the “induction of apoptosis in tumor cells” value is listed as “induce apoptosis”.
